Assay results as given in PubChem BioAssay (NCI).
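Test compounds were applied to cells in 96-well plates for 48 hours at 5 doses. GI50 marks 50% less growth. The concentration for full growth arrest is given as TGI.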

What was measured:
Test in all cases: DTP human tumour cell line panel, 48 h
[1] = tested on: NCI-H460 lung
[2] = tested on: SF-268 CNS
[3] = tested on: SN12C renal
[4] = tested on: U251 CNS
[5] = tested on: A549 NSCLC
[6] = tested on: HOP-92 NSCLC
[7] = tested on: MOLT-4 leukemia
[8] = tested on: MDA-MB-435
[9] = tested on: MCF7 breast
[10] = tested on: SK-MEL-28 melanoma
[11] = tested on: IGROV1 ovarian
[12] = tested on: ACHN renal
[13] = tested on: BT-549 breast
[14] = tested on: SNB-75 CNS
[15] = tested on: SR leukemia

| Compound | TGI [1] [µM] | TGI [2] [µM] | TGI [3] [µM] | TGI [4] [µM] | TGI [5] [µM] | TGI [6] [µM] | TGI [7] [µM] | TGI [8] [µM] | TGI [9] [µM] | TGI [10] [µM] | TGI [11] [µM] | TGI [12] [µM] | TGI [13] [µM] | TGI [14] [µM] | TGI [15] [µM] | GI50 [2] [µM] | GI50 [14] [µM] |
| --- | --- | --- | --- | --- | --- | --- | --- | --- | --- | --- | --- | --- | --- | --- | --- | --- | --- |
| CCCCC1Cc2cc(O)ccc2-c2n1c1cc(O)ccc1[n+]2C (stereo unspecified) (tested in a mixture with another compound) | > 100 | > 59.5 | > 100 | > 62.3 | > 100 | 73.8 | > 100 | 59.6 | > 72.7 | 74.3 | > 83.8 | 98.7 | > 100 | > 100 | > 100 |  |  |
| C1CNCCN2CCCNCCN(C1)CC2 | > 100 | > 100 | > 100 | > 100 | > 100 | > 100 | > 100 | > 100 | > 100 | > 100 | > 100 | > 100 | > 100 | > 100 | > 100 |  |  |
| CCCCc1ccc(Nc2nc3c(ncn3C3OC(COC(C)=O)C(OC(C)=O)C3OC(C)=O)c(=O)[nH]2)cc1 (stereo unspecified) | 32.7 | 37.7 | 42.3 | 45.4 | > 100 | 30.4 | 37.8 | 34.5 | 63.2 |  | 37.7 | > 100 | 32.2 |  | 35.9 |  |  |
| CCOC(=O)C(SCCO)C(C(=O)OCC)n1ccc(N)nc1=O (stereo unspecified) | > 100 | > 100 | > 100 | > 100 | > 100 | > 100 | > 100 | > 100 | > 100 | > 100 | > 100 | > 100 | > 100 | > 100 | > 100 |  |  |
| N#CS/C(C(Cl)=C(Cl)Cl)=C(/Cl)[N+](=O)[O-] | 33.2 | 18.9 | 4.92 | 30 | 53.8 |  | 2.19 | 3.19 | 29.3 | 3.45 | 5.63 | 3.1 | 4.92 | 52 | 2.15 |  |  |
| CCCS(=O)(=O)O | > 100 | > 100 |  | > 100 | > 100 | > 100 | > 100 | > 100 | > 100 | > 100 | > 100 | > 100 | > 100 | > 100 | > 100 |  |  |
| CC(=O)OCC1C(C(C)OC(C)=O)CCC2C1CCC1(C)C(OC(C)=O)CCC21 (stereo unspecified) | 31.8 | 52.5 | 34.8 | 30.5 | 39.4 | 37.4 | 41.8 | 34.6 | 33.8 | 29.1 | 42.1 | 28.3 | 24.5 |  | > 100 |  |  |
| CN(Cc1cnc2nc(N)nc(N)c2n1)c1ccc(C(=O)NC(CCS(=O)(=O)O)C(=O)O)cc1 (stereo unspecified) | > 31.6 | > 100 | > 100 |  | > 100 | > 100 | > 100 | > 100 | > 100 | > 100 | > 100 | > 100 | > 100 | > 100 | > 100 | 0.972 | 96 |
| C=C1c2nc3ccccc3n2C=C(c2ccc(Cl)cc2)N1c1ccc(OCCN2CCOCC2)cc1 | > 100 | > 100 | > 100 | > 100 | > 100 | > 100 |  | > 100 | > 100 | > 100 | > 100 | > 100 | > 100 | > 100 | 42 |  |  |
| COc1ccc(/C=C2/C(=O)N(C(=O)c3ccccc3O)N=C2C)cc1OC | > 100 | > 100 | > 50.7 | > 100 | > 100 | > 100 | > 100 | > 100 | 33.9 | > 100 |  | > 100 | > 100 |  | > 100 |  |  |
| C=C1CC(OC(C)=O)/C=C(/C)CCC(C(C)(C)O)CC1O (stereo unspecified) | > 100 | > 100 | > 100 | > 100 | > 100 | > 100 | > 100 | > 100 | > 100 | > 100 | > 100 | > 100 | > 100 |  | > 100 |  |  |
| O=C(O)CC(NC(=O)C(F)(F)F)C(=O)NC1Cc2ccccc2OC1=O (stereo unspecified) | > 100 | > 100 | > 100 | > 100 | > 100 |  | > 100 | > 100 | > 100 | > 100 | > 100 | > 100 | > 100 | > 100 | > 100 |  |  |
| CC(C)OP(=O)(OC(C)C)C(C(F)(F)F)C(F)(F)F |  | > 100 | > 100 | > 100 | > 100 | > 100 | > 100 | > 100 | > 100 | > 100 | > 100 | > 100 | > 100 | > 100 | > 100 |  |  |
| NS(=O)(=O)c1nnc(NC(=O)CCC(=O)O)s1 | > 100 | > 100 | > 100 | > 100 | > 100 | > 100 | > 100 | > 100 | > 100 | > 100 |  | > 100 | > 100 |  | > 100 |  |  |
| COC1/C=C/C(C)C(OC)CC(O)/C=C/C(C)C(C(C)C(OC)C(C)CCC(=O)C(C)C(C/C=C/N(C)C=O)OC)OC(=O)/C=C/C=C(\C)CC(OC)C(OC)C2=CC(=O)O[C@@H](C(C)C(OC)C1)[C@H]2O (stereo partly specified) | 0.188 | 0.129 | > 25 | 0.12 | 0.497 | 0.0773 | > 9.73 | 0.195 | 0.17 | 0.121 |  | 0.158 | 0.163 | 0.0859 | > 25 |  |  |
| CN(c1c(Cl)cccc1Cl)S(=O)(=O)c1ccccc1[N+](=O)[O-] | > 100 | > 100 | > 100 | > 100 | > 100 |  | > 100 | > 100 | > 100 | > 100 | > 100 | > 100 | > 100 | > 100 | > 100 |  |  |
